Experimental data taken from the supplement of paper PMC11208160.

Experiment: recombinant UMI read abundance after kanamycin selection (control-corrected) (log10(CPM+1)); higher = more efficient recombination; extreme values may be limits of the assay; sequences stand for … in AGTGCAGAGAAAATCGGCCAGTTTTCTCTGCCTGCAGTCCGCATGCCGTGGGACCCCTTGGGTTCTAACCTGTTGCCTAGATTTATGCAGCGGACTGCCTTTCTCCCAAAGTGATAAACCGG…AGGTTGGTTTCACT; site = the 11-nt donor
Outline: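 Values, expressed as log10(CPM+1), derive from recombinant UMI counts converted to CPM, averaged across replicates and scaled by control-derived factors. Plating was with IPTG (0.07 mM) plus kanamycin or unselected, two replicates each. The screen pooled donor and donor-binding-loop pairs for the IS621 bridge recombinase in Escherichia coli.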
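Further: IS621 bridge recombinase in Escherichia coli cells against a fixed T5 target plasmid.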

Sequence	recombinant UMI read abundance (log10)
GTAGTCGCATGGACCGGTTTTCCCGGTAATCCGTATTTGCG (site GTAGTCGCTAG)	1.23
GTAGTCGCATGGACCGGTTTTCCCGGTAATCCGTATTTGCG (site GTAGTCGCTCA)	0.421
GTAGTCGCATGGACCGGTTTTCCCGGTAATCCGTATTTGCG (site GTAGTCGCTCC)	0.0196
GTAGTCGCATGGACCGGTTTTCCCGGTAATCCGTATTTGCG (site GTAGTCGCTCG)	1.61
GTAGTCGCATGGACCGGTTTTCCCGGTAATCCGTATTTGCG (site GTAGTCGCTCT)	0.471
GTAGTCGCATGGACCGGTTTTCCCGGTAATCCGTATTTGCG (site GTAGTCGCTGG)	1.34
GTAGTCGCATGGACCGGTTTTCCCGGTAATCCGTATTTGCG (site GTAGTCGCTTG)	1.95
GTAGTCGCATGGACCGGTTTTCCCGGTAATCCGTATTTGCG (site GTAGTCTCTCG)	2
GTAGTCGCATGGACCGGTTTTCCCGGTAATCCGTATTTGCG (site GTAGTGGCTCG)	0.013
GTAGTCGCATGGACCGGTTTTCCCGGTAATCCGTATTTGCG (site GTAGTTGCTCG)	0.00541
GTAGTCGCATGGACCGGTTTTCCCGGTAATCCGTATTTGCG (site GTATTCGCTCG)	0.011
GTAGTCGCATGGACCGGTTTTCCCGGTAATCCGTATTTGCG (site GTCGTCGCTCG)	0.00603
GTAGTCGCATGGACCGGTTTTCCCGGTAATCCGTATTTGCG (site GTGGTCGCTCG)	0.0189
GTAGTCGCATGGACCGGTTTTCCCGGTAATCCGTATTTGCG (site GTTGTCGCTCG)	0.285
GTAGTCGCATGGACCGGTTTTCCCGGTAATCCGTATTTGCG (site TTAGTCGCTCG)	1.26
GTAGTGACATGGACCGGTTTTCCCGGTAATCCGTATTTGCC (site GTAGTGACTGG)	2.58
GTATAGGCATGGACCGGTTTTCCCGGTAATCCGTATTTGTA (site GTATAGGCTTA)	2.22
GTATCTCCATGGACCGGTTTTCCCGGTAATCCGTATTTGAA (site GTATCTCCTTT)	1.19
GTATGAACATGGACCGGTTTTCCCGGTAATCCGTATTTGAG (site GTATGAACTCT)	1.87
GTATGCACATGGACCGGTTTTCCCGGTAATCCGTATTTGGA (site GTATGCACTTA)	0.901
GTATGCACATGGACCGGTTTTCCCGGTAATCCGTATTTGGA (site GTATGCACTTC)	0.931
GTATGCACATGGACCGGTTTTCCCGGTAATCCGTATTTGGA (site GTATGCACTTG)	0.783
GTATGCACATGGACCGGTTTTCCCGGTAATCCGTATTTGGA (site GTATGCACTTT)	0.924

Sequence	recombinant UMI read abundance (log10)
GTATGGCCATGGACCGGTTTTCCCGGTAATCCGTATTTGCA (site GAATGGCCTTG)	0
GTATGGCCATGGACCGGTTTTCCCGGTAATCCGTATTTGCA (site GCATGGCCTTG)	0
GTATGGCCATGGACCGGTTTTCCCGGTAATCCGTATTTGCA (site GGATGGCCTTG)	0
GTATGGCCATGGACCGGTTTTCCCGGTAATCCGTATTTGCA (site GTATGGCCTTG)	0
GTATGTTCATGGACCGGTTTTCCCGGTAATCCGTATTTGAG (site GTATGTTCTCT)	2.52
GTATTACCATGGACCGGTTTTCCCGGTAATCCGTATTTGCA (site GTATTACCTTG)	0
GTATTATCATGGACCGGTTTTCCCGGTAATCCGTATTTGAC (site CTAGTATCTGT)	1.38
GTATTATCATGGACCGGTTTTCCCGGTAATCCGTATTTGAC (site GTATTATCTGT)	2.66
GTCAAACCATGGACCGGTTTTCCCGGTAATCCGTATTTGGT (site GACAAACCTAC)	0
GTCAAACCATGGACCGGTTTTCCCGGTAATCCGTATTTGGT (site GCCAAACCTAC)	0
GTCAAACCATGGACCGGTTTTCCCGGTAATCCGTATTTGGT (site GGCAAACCTAC)	0
GTCAAACCATGGACCGGTTTTCCCGGTAATCCGTATTTGGT (site GTCAAACCTAC)	0
GTCACACCATGGACCGGTTTTCCCGGTAATCCGTATTTGTT (site GTCACACCTAA)	0.00382
GTCACGACATGGACCGGTTTTCCCGGTAATCCGTATTTGGT (site GTCACGACTAC)	1.06
GTCACTGCATGGACCGGTTTTCCCGGTAATCCGTATTTGAT (site GTCACTGCTAT)	1.99
GTCAGAACATGGACCGGTTTTCCCGGTAATCCGTATTTGGC (site GTAAGAACTGC)	0.371
GTCAGAACATGGACCGGTTTTCCCGGTAATCCGTATTTGGC (site GTCAGAACTGC)	1.57
GTCAGAACATGGACCGGTTTTCCCGGTAATCCGTATTTGGC (site GTGAGAACTGC)	0
GTCAGAACATGGACCGGTTTTCCCGGTAATCCGTATTTGGC (site GTTAGAACTGC)	0
GTCAGCCCATGGACCGGTTTTCCCGGTAATCCGTATTTGAC (site GTCAGCCCTGT)	1.33
GTCAGCGCATGGACCGGTTTTCCCGGTAATCCGTATTTGGC (site GTCAGCGCTGC)	2.6
GTCATAGCATGGACCGGTTTTCCCGGTAATCCGTATTTGTT (site GTCATAGCTAA)	2.1
GTCATCGCATGGACCGGTTTTCCCGGTAATCCGTATTTGCC (site GTCATCGCTGG)	2.35

Sequence	recombinant UMI read abundance (log10)
GTCCCCGCATGGACCGGTTTTCCCGGTAATCCGTATTTGTA (site GTCCCCGCTTA)	1.13
GTCCCTACATGGACCGGTTTTCCCGGTAATCCGTATTTGAG (site ATCCCTACTCT)	0.0134
GTCCCTACATGGACCGGTTTTCCCGGTAATCCGTATTTGAG (site CTCCCTACTCT)	0.0129
GTCCCTACATGGACCGGTTTTCCCGGTAATCCGTATTTGAG (site GTCCCTACTCT)	0.168
GTCCCTACATGGACCGGTTTTCCCGGTAATCCGTATTTGAG (site TTCCCTACTCT)	0.00698
GTCGCCACATGGACCGGTTTTCCCGGTAATCCGTATTTGGA (site GTCGCCACTTC)	0.751
GTCGGCACATGGACCGGTTTTCCCGGTAATCCGTATTTGAC (site GTCGGCACTGT)	2.04
GTCGGTACATGGACCGGTTTTCCCGGTAATCCGTATTTGAC (site GTAGGTACTGT)	0.298
GTCGGTACATGGACCGGTTTTCCCGGTAATCCGTATTTGAC (site GTCGGTACTGT)	1.32
GTCGGTACATGGACCGGTTTTCCCGGTAATCCGTATTTGAC (site GTGGGTACTGT)	0
GTCGGTACATGGACCGGTTTTCCCGGTAATCCGTATTTGAC (site GTTGGTACTGT)	0
GTCGTCGCATGGACCGGTTTTCCCGGTAATCCGTATTTGCG (site GTAGTCGCTCG)	0.0332
GTCGTCGCATGGACCGGTTTTCCCGGTAATCCGTATTTGCG (site GTCGTCGCTCG)	0.512
GTCGTCGCATGGACCGGTTTTCCCGGTAATCCGTATTTGCG (site GTGGTCGCTCG)	0.00908
GTCGTCGCATGGACCGGTTTTCCCGGTAATCCGTATTTGCG (site GTTGTCGCTCG)	0.0186
GTCGTTACATGGACCGGTTTTCCCGGTAATCCGTATTTGGC (site GTCGTTACTGC)	1.78
GTCTAAACATGGACCGGTTTTCCCGGTAATCCGTATTTGTG (site GTCTAAACTCA)	1.09
GTCTATACATGGACCGGTTTTCCCGGTAATCCGTATTTGGA (site GTCTATACTTC)	1.08
GTCTGATCATGGACCGGTTTTCCCGGTAATCCGTATTTGAA (site GTCTGATCTTT)	1.66
GTGAAAACATGGACCGGTTTTCCCGGTAATCCGTATTTGCT (site GAGAAAACTAG)	0.918
GTGAAAACATGGACCGGTTTTCCCGGTAATCCGTATTTGCT (site GCGAAAACTAG)	0
GTGAAAACATGGACCGGTTTTCCCGGTAATCCGTATTTGCT (site GGGAAAACTAG)	0
